Measurements: PubChem BioAssay AID652169 (The Scripps Research Institute Molecular Screening Center, 2013)
Calls of active or inactive are those of the source. No rule for the calls is given here.

Tested on: MTT cytotoxicity, absorbance 620 nm
Assay: cytotoxicity by MTT viability readout, late-stage follow-up, cytotoxicity control for NOD2-RIPK2 interaction inhibitor project, cell-based, absorbance (AID 652169)

Q: `COc1ccc(C(C[N+](=O)[O-])n2nc(C)cc2C)cc1` (stereo unspecified) was tested. Which IC50 did it give?
A: > 10 µM (inactive)

Q: With `Cc1nc([N+](=O)[O-])c(Br)n1Cc1ccc(Cl)c(Cl)c1` as the molecule, how does the IC50 read?
A: > 10 µM (inactive)

Q: `Cc1nc([N+](=O)[O-])c(Br)n1Cc1ccccc1` was tested. Which IC50 did it give?
A: > 10 µM (inactive)

Q: `O=S(=O)(c1ccccc1)N1CCCCCC1` was tested. Which IC50 did it give?
A: > 10 µM (inactive)

Q: Which IC50 does the source give for `Cc1ccc(S(=O)(=O)N2CCCCCC2)cc1[N+](=O)[O-]` here?
A: > 10 µM (inactive)

Q: Which IC50 does the source give for `O=[N+]([O-])c1cccc(S(=O)(=O)N2CCCCCC2)c1` here?
A: > 10 µM (inactive)

Q: How did the IC50 turn out when `O=S(=O)(c1ccc(F)cc1)N1CCCCCC1` was run?
A: > 10 µM (inactive)

Q: How did the IC50 turn out when `Cc1cc(S(=O)(=O)N2CCCCCC2)ccc1F` was run?
A: > 10 µM (inactive)

Q: How did the IC50 turn out when `Cc1ncc([N+](=O)[O-])n1Cc1ccc(Cl)c(Cl)c1` was run?
A: > 10 µM (inactive)

Q: With `Cc1ccc(C(C[N+](=O)[O-])n2nc(C)cc2C)cc1` (stereo unspecified) as the molecule, how does the IC50 read?
A: > 10 µM (inactive)

Q: Which IC50 does the source give for `O=[N+]([O-])c1cc(S(=O)(=O)N2CCCCCC2)ccc1F` here?
A: > 10 µM (inactive)
